{"source": "paper PMC8605241", "about": "“Coevolution of the bacterial pheromone ComS and sensor ComR fine-tunes natural transformation in streptococci” (The Journal of Biological Chemistry, 2021)", "key": {"[1]": {"biological_target": "ComRSth WT (Streptococcus thermophilus, UniProt A0A1L1QK15)", "assay_type": "cell-based", "conditions": "for EC50: read-out: EC50 of PcomS activity (maximum specific luciferase activity), synthetic 8-aa peptide added to S. thermophilus ΔcomS reporter strain (PcomS-luxAB), Hill fit, mean ± SD of at least three independent replicates, SD; for effect of XIP-5 substitution on activation (titration of synthetic XIPSth variants): compared with XIPSth WT (A5), PcomS-luxAB", "method": "(§1) Luciferase assays were performed as previously described ([19]). Overnight precultures were diluted to a final OD600 of 0.05 and culture samples incubated in a sterile covered white microplate with a transparent bottom (Greiner). Growth and luciferase activity (expressed in relative light units [RLUs]) of the cultures were monitored after addition or in absence of synthetic XIP peptide at 10 min intervals during at least 8 h in a multiwell plate reader (Hidex Sense, Hidex). When peptides were titrated, 0, 0.78, 1.56, 3.12, 6.25, 12.5, 25, 50, 100, and 1000 nM were added to the medium."}, "[2]": {"biological_target": "T1, ComRSth (Streptococcus thermophilus, UniProt A0A1L1QK15)", "experiment": "Single-molecule force spectroscopy (AFM)", "assay_type": "binding", "conditions": "polyG-linked peptide grafted on AFM tip, ComRSth on gold-coated coverslip", "method": "Gold-coated glass coverslips and cantilevers (OMCL-TR4, Olympus Ltd; nominal spring constant ∼0.02 N m^−1) were immersed overnight in an ethanol solution containing 1 mM of 10% 16- […]/90% 1-mercapto-1-undecanol (Sigma), rinsed with ethanol and dried with N2. Substrates and cantilevers were then immersed for 30 min into a solution containing 10 mg ml^−1 N-hydroxysuccinimide (NHS) and 25 mg ml^−1 1-ethyl-3-(3-dimethylaminopropyl)-carbodiimide (EDC) (Sigma), rinsed with Ultrapure water (ELGA LabWater), incubated with 0.1 mg ml^−1 ComR or polyG-XIPSth, polyG-XIP-A5M, or polyG-XIPSve peptides for 1 h, rinsed further with PBS buffer, and then immediately used without dewetting.\nFor experiments of single-molecule force spectroscopy, ComR-functionalized surfaces and functionalized cantilevers with polyG-peptides were prepared as described above. Measurements were performed at room temperature in PBS with a Force Robot 300 AFM (JPK Instruments). Multiple (32 × 32) force–distance curves were recorded on areas of 500 by 500 nm^2 with an applied force of 250 pN, a constant approach, and retraction speed of 1000 nm s^−1. […] The spring constants of the cantilevers were measured by the thermal noise method ([50]). Data were analyzed with the data processing software from JPK Instruments."}, "[3]": {"biological_target": "T1, ComRSth", "experiment": "biochemical", "conditions": "SD", "description": "In the case of competition assays, a fixed concentration of ComR (250 nM) and FITC N-labeled XIP peptide (30 nM) were incubated with twofold serial dilutions of unlabeled XIP variant (initial concentration of 5 μM). Plots were fitted by using GraphPad Prisma software to calculate IC50 values (half-maximal inhibitory peptide concentration)."}, "[4]": {"biological_target": "FITC N-labeled XIP-A5M peptide (9 aa) (Streptococcus thermophilus)", "experiment": "fluorescence polarisation; 30 nM FITC N-labeled 9-aa XIP peptide, threefold serial dilutions of purified ComR from 1 uM, 10 min at 30 °C, 96-well plates; EC50 by Hill fit"}, "[5]": {"test_system": "ComRSve WT", "experiment": "PcomS-luxAB luciferase reporter assay, S. thermophilus strain with ComRSth replaced by ComRSve", "assay_type": "cell-based, Streptococcus vestibularis", "conditions": "reporter strain carrying ComRSve; for decrease of activation compared with wild-type XIPSve: synthetic peptide", "method": "as §1"}, "[6]": {"test_system": "ComR-F171A", "experiment": "PcomS-luxAB luciferase reporter assay, ComR-F171A strain", "assay_type": "cell-based, Streptococcus thermophilus", "conditions": "substitution added to XIP-L1A; ComR-F171A mutant strain", "description": "Luciferase assays were performed as previously described ([19]). Overnight precultures were diluted to a final OD600 of 0.05 and culture samples incubated in a sterile covered white microplate with a transparent bottom (Greiner). Growth and luciferase activity (expressed in relative light units [RLUs]) of the cultures were monitored after addition or in absence of synthetic XIP peptide at 10 min intervals during at least 8 h in a multiwell plate reader (Hidex Sense, Hidex). When peptides were titrated, 0, 0.78, 1.56, 3.12, 6.25, 12.5, 25, 50, 100, and 1000 nM were added to the medium. In order to calculate EC50 values (peptide concentration for a half maximum response), maximum luciferase activity values were fitted to Hill equation: L=Lmax×[XIP]^n/(EC50)^n+[XIP]^n where L is the luciferase activity, [XIP] is the XIP concentration, and n is the Hill coefficient. Curves were fitted with the GraphPad Prism software v.9.0.1 (GraphPad Software, Inc)."}, "[7]": {"biological_target": "ComRSth-StreptagII protein (Streptococcus thermophilus ComR) (Streptococcus thermophilus)"}, "[8]": {"biological_target": "T2, ComRSth-StreptagII protein (Streptococcus thermophilus ComR) (Streptococcus thermophilus)", "T2 chain": "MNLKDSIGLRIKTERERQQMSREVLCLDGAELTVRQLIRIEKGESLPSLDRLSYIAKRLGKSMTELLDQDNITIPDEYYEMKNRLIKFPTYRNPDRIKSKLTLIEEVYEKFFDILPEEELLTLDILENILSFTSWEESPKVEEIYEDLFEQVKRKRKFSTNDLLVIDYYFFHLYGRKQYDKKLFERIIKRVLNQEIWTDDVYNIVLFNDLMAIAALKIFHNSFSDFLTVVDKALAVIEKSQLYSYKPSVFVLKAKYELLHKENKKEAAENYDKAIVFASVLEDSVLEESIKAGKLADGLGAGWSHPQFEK", "experiment": "FP; competition with FITC-XIP-A5M"}}, "note": "Residues, ends and D or L forms follow the SMILES beside them."}
{"molecule": "CSCC[C@H](NC(=O)[C@H](Cc1ccccc1)NC(=O)[C@H](Cc1ccc(O)cc1)NC(=O)[C@@H]1CCCN1C(=O)[C@@H](N)C(C)C)C(=O)NCC(=O)N[C@@H](CS)C(=O)N[C@@H](CC(C)C)C(=O)O", "note": "[XIP-L1V-A5M] (H-VPYFMGCL-OH)", "values": [{"measurement": "EC50", "setting": "[1]", "value": "1.36 ± 0.33", "unit": "nM"}, {"measurement": "EC50 compared with wild-type XIPSth", "setting": "[1]; synthetic peptide, ΔcomS reporter strain, PcomS as proxy", "value": "approximately fourfold lower"}]}
{"molecule": "VPFFMIYY [XIPSve]", "values": [{"measurement": "binding frequency / binding probability", "setting": "[2]", "value": "~2", "unit": "%"}, {"measurement": "median binding (adhesion) force", "setting": "[2]; PBS, room temperature, about 1000 curves per surface", "value": 58, "unit": "pN"}]}
{"molecule": "CC(C)C[C@H](NC(=O)[C@H](CS)NC(=O)CNC(=O)[C@H](C)NC(=O)[C@H](Cc1ccccc1)NC(=O)[C@H](Cc1ccc(O)cc1)NC(=O)[C@@H]1CCCN1C(=O)[C@@H](N)CC(C)C)C(=O)O", "note": "[XIPSth, reference compound] (H-LPYFAGCL-OH)", "values": [{"measurement": "IC50", "setting": "[3]", "value": "254 ± 49.7", "unit": "nM"}, {"measurement": "EC50", "setting": "[1]", "value": "4.4 ± 1.12", "unit": "nM"}]}
{"molecule": "ComRSth-StreptagII protein (Streptococcus thermophilus ComR) (natural protein)", "values": [{"measurement": "fold lower EC50 than FITC-XIPSth", "setting": "[4]", "value": 2, "unit": "fold"}]}
{"molecule": "VPFFAIYY [XIPSve-M5A]", "values": [{"measurement": "decrease of activation compared with wild-type XIPSve", "setting": "[5]", "value": "~40", "unit": "fold"}]}
{"molecule": "APYFMGCL [XIPSth-L1A-A5M]", "values": [{"measurement": "increased activation (fold change in EC50) with XIP-L1A as reference", "setting": "[6]", "value": 1.3, "unit": "fold"}, {"measurement": "increased activation (fold change in EC50) with XIP-L1A (A1–A5) as reference", "setting": "[1]; substitution added to XIP-L1A, ComRSth WT reporter strain", "value": 10.4, "unit": "fold"}]}
{"molecule": "PYFAGCL [XIPSth-ΔL1]", "values": [{"measurement": "decrease of activity (fold less active)", "setting": "[1]; synthetic 7-aa peptide, ComRSth WT reporter strain", "value": "~90", "unit": "fold"}]}
{"molecule": "XIP-L1A-A5M (synthetic octapeptide)", "values": [{"measurement": "P (comS)-luxAB luciferase reporter in S. thermophilus cells producing ComRSth WT; fold change in EC50 against the reference XIP-L1A (substitution A5M)", "setting": "[7]", "value": 10.4, "unit": "fold"}]}
{"molecule": "LPYFIGCL [XIP-A5I]", "values": [{"measurement": "effect of XIP-5 substitution on activation (titration of synthetic XIPSth variants)", "setting": "[1]; ΔcomS reporter strain", "value": "improved transcriptional activation but at a lower level than A5M"}]}
{"molecule": "APFFMIYY [XIPSve-V1A]", "values": [{"measurement": "decrease of activation compared with wild-type XIPSve", "setting": "[5]", "value": "~130", "unit": "fold"}]}
{"molecule": "LPYFTGCL [XIP-A5T]", "values": [{"measurement": "effect of XIP-5 substitution on activation (titration of synthetic XIPSth variants)", "setting": "[1]; ΔcomS reporter strain", "value": "neutral"}]}
{"molecule": "PFFMIYY [XIPSve-ΔV1, 7-aa XIPSve variant PFFMIYY]", "values": [{"measurement": "activation of ComRSve (in words)", "setting": "[5]; synthetic 7-aa peptide", "value": "completely abolished"}]}
{"molecule": "PYFAGCL", "note": "[XIPSth-ΔL1 (7 aa)]", "values": [{"measurement": "P (comS)-luxAB luciferase reporter in S. thermophilus cells producing ComRSth WT; activity against XIPSth WT (fold less active)", "setting": "[7]", "value": 90}]}
{"molecule": "LPYFAGCL", "note": "[XIPSth (Streptococcus thermophilus XIP, synthetic octapeptide)]", "values": [{"measurement": "IC50", "setting": "[8]", "value": 254, "unit": "nM"}, {"measurement": "P (comS)-luxAB luciferase reporter in S. thermophilus cells producing ComRSth WT; fold change in EC50 against the reference XIP-L1A (substitution A1L)", "setting": "[7]", "value": 2.7, "unit": "fold"}]}
